Source: ChEMBL document CHEMBL1141018, “Synthesis and biological evaluation of homopiperazine derivatives with beta-aminoacyl group as dipeptidyl peptidase IV inhibitors” (Bioorg Med Chem Lett, 2008)

molecular target: Dipeptidyl peptidase 2 (Homo sapiens, UniProt Q9UHL4); experiment: Inhibition of DPP2

Row | IC50 [nM] | SMILES
1 | 46800 | N[C@@H](CC(=O)N1CCCN(C(=O)c2cccc(C(=O)O)c2)CC1)Cc1cc(F)c(F)cc1F
2 | 99400 | N[C@@H](CC(=O)N1CCCN(C(=O)c2cncc(C(=O)O)c2)CC1)Cc1cc(F)c(F)cc1F

molecular target: Dipeptidyl peptidase 4 (Homo sapiens, UniProt P27487)
Sequence (P27487 whole entry): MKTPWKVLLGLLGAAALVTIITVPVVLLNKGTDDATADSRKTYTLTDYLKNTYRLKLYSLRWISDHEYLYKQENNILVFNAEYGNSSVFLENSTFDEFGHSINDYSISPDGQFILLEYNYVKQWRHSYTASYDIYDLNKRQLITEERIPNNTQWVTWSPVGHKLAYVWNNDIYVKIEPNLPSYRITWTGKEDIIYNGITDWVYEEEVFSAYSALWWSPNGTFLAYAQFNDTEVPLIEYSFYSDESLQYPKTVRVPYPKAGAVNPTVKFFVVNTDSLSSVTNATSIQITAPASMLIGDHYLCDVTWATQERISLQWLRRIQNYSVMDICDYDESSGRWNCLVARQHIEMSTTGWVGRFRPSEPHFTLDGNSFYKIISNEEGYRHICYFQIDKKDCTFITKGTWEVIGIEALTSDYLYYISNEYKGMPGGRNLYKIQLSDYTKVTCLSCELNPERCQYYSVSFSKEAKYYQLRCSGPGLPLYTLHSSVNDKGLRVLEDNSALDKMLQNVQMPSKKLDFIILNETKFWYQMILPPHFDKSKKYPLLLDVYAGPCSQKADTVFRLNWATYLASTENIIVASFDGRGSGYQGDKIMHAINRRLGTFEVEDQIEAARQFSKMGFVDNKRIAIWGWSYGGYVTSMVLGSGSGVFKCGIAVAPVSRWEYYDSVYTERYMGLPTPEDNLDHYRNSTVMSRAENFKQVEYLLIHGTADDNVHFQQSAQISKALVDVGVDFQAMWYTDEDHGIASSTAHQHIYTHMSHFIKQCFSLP

Row | SMILES | IC50 [nM]
3 | N[C@@H](CC(=O)N1CCCN(S(=O)(=O)c2ccc(C(=O)O)cc2)CC1)Cc1cc(F)c(F)cc1F | 239
4 | N[C@@H](CC(=O)N1CCCN(C(=O)Nc2ccc(C(=O)O)cc2)CC1)Cc1cc(F)c(F)cc1F | 788
5 | CCN1CCCN(C(=O)C[C@H](N)Cc2cc(F)c(F)cc2F)CC1 | 6400
6 | N[C@@H](CC(=O)N1CCCN(c2cnccn2)CC1)Cc1cc(F)c(F)cc1F | 423
7 | CN1CCN(C(=O)N2CCCN(C(=O)C[C@H](N)Cc3cc(F)c(F)cc3F)CC2)CC1 | 1500
8 | Cc1ccc(S(=O)(=O)N2CCCN(C(=O)C[C@H](N)Cc3cc(F)c(F)cc3F)CC2)cc1 | 350
9 | CS(=O)(=O)N1CCCN(C(=O)C[C@H](N)Cc2cc(F)c(F)cc2F)CC1 | 3100
10 | N[C@@H](CC(=O)N1CCCN(S(=O)(=O)c2ccc([N+](=O)[O-])cc2)CC1)Cc1cc(F)c(F)cc1F | 405
11 | N[C@@H](CC(=O)N1CCCNCC1)Cc1cc(F)c(F)cc1F | 1440
12 | N[C@@H](CC(=O)N1CCCN(c2ncccn2)CC1)Cc1cc(F)c(F)cc1F | 597

More lines, now with the values ahead:

Row | IC50 [nM] | SMILES
13 | 260 | N[C@@H](CC(=O)N1CCCN(C(=O)c2ccc(C(=O)O)o2)CC1)Cc1cc(F)c(F)cc1F
14 | 180 | NC(=O)c1ccc(C(=O)N2CCCN(C(=O)C[C@H](N)Cc3cc(F)c(F)cc3F)CC2)cc1
15 | 288 | N[C@@H](CC(=O)N1CCCN(C(=O)c2ccc(S(N)(=O)=O)cc2)CC1)Cc1cc(F)c(F)cc1F
16 | 150 | N[C@@H](CC(=O)N1CCCN(C(=O)c2ccc(C(=O)O)nc2)CC1)Cc1cc(F)c(F)cc1F
17 | 50 | N[C@@H](CC(=O)N1CCCN(C(=O)c2cccc(C(=O)O)c2)CC1)Cc1cc(F)c(F)cc1F
18 | 67 | N[C@@H](CC(=O)N1CCCN(C(=O)c2cncc(C(=O)O)c2)CC1)Cc1cc(F)c(F)cc1F
19 | 3400 | CC(=O)N1CCCN(C(=O)C[C@H](N)Cc2cc(F)c(F)cc2F)CC1
20 | 490 | N[C@@H](CC(=O)N1CCCN(C(=O)c2ccc3c(c2)OCO3)CC1)Cc1cc(F)c(F)cc1F
21 | 410 | N[C@@H](CC(=O)N1CCCN(C(=O)c2cccnc2)CC1)Cc1cc(F)c(F)cc1F
22 | 490 | N[C@@H](CC(=O)N1CCCN(C(=O)OCc2ccccc2)CC1)Cc1cc(F)c(F)cc1F
23 | 510 | N[C@@H](CC(=O)N1CCCN(C(=O)c2ccccc2)CC1)Cc1cc(F)c(F)cc1F
24 | 387 | N[C@@H](CC(=O)N1CCCN(Cc2ccccc2)CC1)Cc1cc(F)c(F)cc1F
25 | 1390 | N[C@@H](CC(=O)N1CCCN(C(=O)Nc2ccccc2)CC1)Cc1cc(F)c(F)cc1F
